One assay concerns totSLFN11. Nature of the assay: Total SLFN11 in AML cell panel, long-term treatment, flow cytometry. The assay is classed as cell-based, human. As for the experimental part:
(§1) Staining of Cells for Flow Cytometry, General Protocol: • Live cells were centrifuged at 300 G for 5 minutes, washed once with PBS and centrifuged again. Cells were then fixed in 4% PFA in PBS for 10 minutes at 37° C., and resuspended in PBS. Unless processed immediately, samples were at this point stored in PBS at 4° C. (up to three weeks) or at −80° C. (for long-term storage). If intracellular epitopes were stained, cells were permebealized in 90% MeOH for 30 minutes on ice. Unless processed immediately, samples were also be stored in 90% MeOH at −20° C. for up to two months. • Further staining procedure (permebealized or non-permebealized cells): • Cells were washed 1× in PBS and blocked in blocking buffer; either PBS+0.5% BSA or PBS+1:1000 Octagam (5 mg/ml) for 15 minutes at room temperature. Thereafter, cells were incubated with primary AB at the indicated dilutions in incubation buffer (IB, PBS+0.5% BSA) for 1 hour at room temperature. Cells were then washed 3× with IB and incubated with secondary AB (conjugated to a fluorescent flurophore) at 1:1000 dilution in IB for 30 minutes at room temperature. Finally, cells were washed 3× in IB and resuspended in PBS. Cells were analyzed immediately, or stored for up to 24 hours at 4° C. before analysis. • Analysis of cells was done on a BD LSR Fortessa or a BD C6 Accuri flow cytometer, and further processing was done using FlowJo v.7.6. • All incubation steps (but not storage) were done on a spinning wheel or gentle shaker.
(§2) The diversity of AML cells and their responses was investigated using a panel of AML cell lines and assessing their responses after BGB324-treatment.
Long-term treatment was done in complete medium, without starvation. The responders were treated with 0.05, 0.1 or 0.3 μM BGB324, whereas the non-responders were treated with only a single dose of 2.5 μM BGB324. The cells were fixed after 24, 48 or 72 hours, and the samples were stored in 90% MeOH at −20° C. until all samples were harvested, and stained for flow at the same time.
For orientation: Flow cytometry measures light scatter and fluorescence of single cells or particles in a stream.

For another assay, the system named is Akt(S473). The assay is described as follows: pAkt(S473) in blood of healthy volunteers treated ex vivo. The assay is classed as cell-based, human. The conditions noted are these: blood of two healthy volunteers, 1 μM, 30 minutes ex vivo; signal very low, disregarded as false. As for the experimental part:
Staining of Blood for Flow Cytometry, General Protocol: • Human blood from healthy donors was collected in the presence of sodium citrate and mixed with 20 volumes of pre-warmed BD phosflow lyse/fix buffer (diluted to 1× in destilled water), followed by incubation in 37° C. water bath for 10 minutes. Cells were spun at 500 g for 8 minutes and washed once with PBS. • Cells were permebilized by adding 70% MeOH followed by 30 min incubation on ice. Unless processed immediately, samples were at this point stored in MeOH at −20° C. for up to 4 weeks. • Staining of permeabilized cells: • Cells were spun at 600 g, washed twice and resuspended in IB. Cells were aliquoted into volums corresponding to 100 ul collected blood (before dilution), and stained as described above (section two in “Staining of cells for flow cytometry, general protocol”). • All washing and incubation steps were done on a spinning wheel or gentle shaker.
Blood samples from BGB324-treated individuals were not available, so BGB324-treatment was simulated by incubating fresh unfixed blood samples with 1 μM BGB324 for 30 minutes before fixation. Thereafter, samples were fixed, permebealized, and stained for flow with pAxl and pAkt antibodies to examine whether we could see a response to BGB324-treatment in these biomarkers (see FIG. 7). Phosphatase-treated cells were included as a negative staining control.

The test system of the next assay is pPLCγ1. Nature of the assay: pPLCγ1 in CD33-positive cells, MOLM13 systemic xenograft model, flow cytometry. Format: in vivo, mice. The conditions noted are these: 50 mg/kg for 4 days. As for the experimental part: Material from an in vivo MOLM13 systemic model was also evaluated by flow cytometry. Expression of the previously evaluated biomarkers was examined in cells isolated from bone marrows and spleens of animals with systemic AML disease (MOLM13, inoculated for 7 days prior to treatment) treated with BGB324 at 50 mg/kg for 4 days. The spleens analysed were from the same study that was analysed by microarray, as mentioned above. The bone marrows were from an identical study that was done at a later time point to get more material for flow analyses.
Cells isolated from spleens and bone marrows were assessed for phosphorylation of Erk, PLCγ1 and Akt, and expression of PHGDH and SLFN11. The samples were also co-stained with CD33, and biomarker expression was only evaluated in CD33-positive cells.

A further assay has as its system Kasumi cells. The assay is described as follows: IC50 of BGB324 by resazurin assay, Kasumi. The assay is classed as cell-based. Conditions: Homo sapiens, Kasumi (non-responder).
Excerpt: as §2
(Resazurin is reduced to fluorescent resorufin, in cell work by metabolically active cells.)

In the next assay the test system is SLFN11. Nature of the assay: Microarray analysis of xenograft material, SLFN11 transcript. The assay is classed as in vivo, mice. An excerpt: Slfn11 was included in the biomarker panel following microarray analysis of Mv4-11 and MOLM13 xenograft material after BGB324-treatment.
Another assay concerns pAkt(S473). Nature of the assay: pAkt(S473) by flow cytometry in MOLM13 cells (Example 1). Format: cell-based, human. As for the experimental part:
as §1
MOLM13 cells were treated with BGB324 at different doses, and phosphorylation of Akt at the S473 phosphorylation site was assessed using a pAkt (S473) XP antibody from Cell Signaling Technology (#4060, BGB #109). Due to previous experience using this AB for flow, the AB was not titrated, but used at the concentration recommended by the manufacturer for flow cytometry.
MOLM13 cells were cultured in starvation medium (RPMI, 0.1% FBS) over night, pre-treated with BGB324 at 3 μM for 20 minutes, and thereafter stimulated with 10% FBS for 20 minutes (+/−BGB324) to induce Akt phosphorylation. […]

As for `Nc1nc(Nc2ccc3c(c2)CC[C@@H](N2CCCC2)CC3)nn1-c1cc2c(nn1)-c1ccccc1CCC2` [BGB324, 1-(6,7-dihydro-5H-benzo[6,7]cyclohepta[1,2-c]pyridazin-3-yl)-N3-((7-(S)-pyrrolidin-1-yl)-6,7,8,9-tetrahydro-5H-benzo[7]annulene-2-yl)-1H-1,2,4-triazole-3,5-diamine], the SLFN11 expression result is recorded as “no significant differences” in the assay with totSLFN11 (Kasumi, 2.5 μM, 24 and 48 hours); “significant increase of SLFN11 expression” in the assay with totSLFN11 (Kasumi, 2.5 μM, 72 hours); “no significant differences” in the assay on totSLFN11 (OCI-AML5, 2.5 μM, 24 and 48 hours); “significant increase of SLFN11 expression” in the assay with totSLFN11 (OCI-AML5, 2.5 μM, 72 hours). For the same molecule, the “total protein expression of SLFN11” value in the assay on totSLFN11 (MOLM13, 0.3 μM, 24, 48 and 72 hours) is “significant reduction”; with totSLFN11 (Mv4-11, 0.1 uM, 72 hours) it was “significantly reduced”; in the assay with totSLFN11 (Mv4-11, 0.3 μM, 24, 48 and 72 hours), “significant reduction”. Further, the pAkt entry with Akt(S473) is given as “very slight reduction in pAkt”. The pPLCγ1 result in the assay with pPLCγ1 (bone marrows) and with pPLCγ1 (spleens) was “significant reduction” throughout. For the same molecule, half-maximal inhibition in the assay with Kasumi cells (IC50) was put at 1200 nM. Also, the “SLFN11 transcript (microarray)” value with SLFN11 (MOLM13 systemic xenograft model) is reported as “not significantly reduced”; with SLFN11 (Mv4-11 subcutaneous xenograft, 14 days of treatment), “one of the most significantly downregulated transcripts”; in the assay on SLFN11 (Mv4-11 xenograft, single dose 100 mg/kg, 24 hours after treatment), “significantly downregulated”. The “pAkt in shAxl-expressing cells” value with pAkt(S473) (MOLM13 shAxl (Axl knockdown), 0.1-3 μM) is listed as “inhibition of pAkt was also seen”. Also, in the assay on pAkt(S473) (MOLM13 starved over night, 3 μM, presence and absence of 10% FBS), the “Akt(S473) phosphorylation” value is “potently inhibited”. Also, the pAkt dose-response entry in the assay on pAkt(S473) (MOLM13 wt, shLuc, shAxl, 0.1-3 μM, starved and non-starved) was “potent dose-dependent reduction of pAkt”.

For orientation: IC50 means the concentration that inhibits the measured activity by half. Low readings indicate greater potency, high ones weaker potency.
